4 molecules from patent publication US20060034807A1, “Innervated artificial tissues and uses thereof” (Ottawa Health Research Institute, priority 2002, published 2006) can be followed below.

Assay [1] deals with innervated TE cornea constructs. The experiment in a line: Substance P release from innervated TE corneas (EIA). The class given is cell-based, chick. As to conditions: for SP release versus controls: 1% capsaicin or 50 μM veratridine, P<0.05. As to the method: To elicit a functional response such as SP release, innervated TE cornea constructs were treated with capsaicin or veratridine. Briefly, innervated tissue engineered corneas were treated with a total of 1.5 ml of SHEM containing 8.5% Tween 80 and 1.5% ethanol either alone (control) or with 1) 1% (w/v) capsaicin, or 2) 50 μM veratridine. At 0, 1, 3, 6, 12 and 24 hours post-treatment, culture supernatants were collected, flash frozen in liquid nitrogen and stored at −80° C. Substance P content of the medium was measured using a substance P specific competitive peptide enzyme immunoassay (EIA) kit (Peninsula Laboratories). […] All groups, n 3. *P<0.001 versus control (2-way ANOVA).

Assay [2] has as its system neutrophils. The experiment in a line: Zymographic detection of metalloproteases. The class given is cell-based. As to conditions: neutrophils added on top of collagen matrix. As to the method: Metalloproteinases MMPs) are a family of closely related zinc-containing enzymes whose principal function is thought to be an integral part of generalized tissue remodeling as well as the formation of new blood vessels. Zymography has the advantage that in addition to detecting enzyme activity it can be used to provide information about the molecular weight of an enzyme and so help identify the enzyme. To achieve this dissolved gelatin is incorporated into a polyacrylamide gel, samples are added to the gel, separated by electrophoresis and the gel allowed to incubate for a while to allow the enzymes to degrade the gelatin. When the gels are stained for proteins clear lysis bands are apparent where the metalloproteinases have degraded the gelatin.

The test system of assay [3] is nerve bundles growing into the cornea. Briefly: Electrophysiological recording of evoked action potentials in TE corneas. Format: cell-based, chick. As to conditions: 50 mM lidocaine HCl; stimulation of ganglion cell cluster. An excerpt: Direct electrophysiological recording from the corneal epithelium was therefore conducted to confirm that nerve bundles growing into the cornea were able to conduct lidocaine-sensitive action potentials that were evoked by stimulation of the ganglion cell cluster (FIG. 3C, D). Tissue engineered corneas were transferred into an interface recording chamber, perfused with artificial saline containing (in mM): NaCl: 126, KCl: 3.0, MgSO4: 2.0, NaHCO3: 26, NaH2PO4 1.25, CaCl2: 2.0, dextrose: 10, oxygenated with 95% O2/5% CO2 at room temperature. Cathodal stimulation of ganglion cell clusters was done using silver wires pressed lightly against the surface and applying square wave stimulus pulses of 50 μs duration and typically 60-80 V in amplitude. Differential recordings of electrical responses from nerve fibre bundles were recorded with glass micropipettes (≈50 μm tips) filled with 150 mM NaCl. Because of the close proximity of the stimulation to the recording electrodes, a very large stimulus artefact was generated that obscured the very small action potentials (FIG. 3C, the action potential is indicted by the arrow).
To observe action potentials in isolation, evoked responses were recorded before and after addition of 50 mM lidocaine HCl. […]

Assay [4] relates to HUVEC. Briefly: Effect of growth factors and retinyl acetate on angiogenesis in the sclera model. The class given is cell-based, Human. As to the method:
The fibrinogen solution (3 mg/ml) was mixed with the thrombin solution (1.75 mg/ml) at a ratio of 1:0.03 v/v in wells of different sizes. Within a minute, enzymatic polymerization of fibrinogen gave fibrin gels under gentle agitation at 37° C. To incorporate endothelial cells in the fibrin matrix and to induce angiogenesis, endothelial cells were firstly seeded on the bottom of gelatin-coated wells at high density to provide a confluent monolayer at 48 hours. […] Fibrin gels were obtained again within a minute. Within 2 weeks of culture at 37° C. with 5% CO2, tube like vessels were generated within the matrix that associated together in order to form cord structures. These were visible by light microscopy and were counted in order to give an indication of vessel numbers. A combinatorial approach was utilized to evaluate what factors are required to achieve the optimal number of blood vessels within this sclera model. The pseudo sclera was generated as per Section 3.1.3. […] The effectiveness of the growth factors in positively affecting angiogenesis was evaluated by counting the number of tubes identified in a dish by brightfield microscopy. […] The effect of RA on angiogenesis was evaluated in the system described above. […] Blood vessel formation was evaluated by counting the number of vessels within a treated dish. […]

Take `COc1cc(CNC(=O)CCCC/C=C/C(C)C)ccc1O` [capsaicin]: the “release of SP versus controls” value in assay [1] (1% (w/v) capsaicin, 1, 3, 6, 12 and 24 hours, P<0.001) is listed as “significantly greater”. Moreover, the “SP release versus controls” value in assay [1] (6 hours post-treatment) and in assay [1] (24 hours post-treatment) was “significant increase” each time.
Consider formyl-Met-Leu-Phe [FMLP], for which the “stimulation of neutrophils (MMP-2 and MMP-9 detected)” value in assay [2] is recorded as “able to stimulate them”.
For `CCN(CC)CC(=O)Nc1c(C)cccc1C` [lidocaine], the “sensitivity of evoked action potentials” value in assay [3] is “lidocaine-sensitive”.
Turning to `CC(=O)OC/C=C(C)/C=C/C=C(C)/C=C/C1=C(C)CCCC1(C)C` [RA, Retinyl acetate], in assay [4] (high levels of RA), the “number of blood vessels” value was “decreased”. The “Blood vessel formation (number of vessels)” value in assay [4] (various concentrations of RA) was “increases in a dose dependent fashion and is optimal at an intermediate range”.
